In US7335723B2, “Melanin-concentrating hormone antagonists” (priority 2001, dated 2008):
Where a SMILES comes first, the peptide text is derived from it. Bridges are numbered along the chain shown (N, C = ends). [ ]: non-standard residue; d: D form. The star is where a group is joined. Pentanoyl(5-guanidino) = NC(N)=NCCCCC(=O)*; dNle = CCCC[C@@H](N)C(=O)O; Nle = CCCC[C@H](N)C(=O)O; Abu = CC[C@H](N)C(=O)O; Ava = NCCCCC(=O)O; βAla = NCCC(=O)O

Columns and labels:
rat MCH-1R = rat MCH-1R (Rattus norvegicus, UniProt P97639); experiment: Aequorin bioluminescence functional assay, MCH-1R agonist activity; conditions: for MCH-1R Agonist Activation %: 293-AEQ17 cells expressing rat MCH-1R
rat MCH-1R, sequence (P97639 whole entry): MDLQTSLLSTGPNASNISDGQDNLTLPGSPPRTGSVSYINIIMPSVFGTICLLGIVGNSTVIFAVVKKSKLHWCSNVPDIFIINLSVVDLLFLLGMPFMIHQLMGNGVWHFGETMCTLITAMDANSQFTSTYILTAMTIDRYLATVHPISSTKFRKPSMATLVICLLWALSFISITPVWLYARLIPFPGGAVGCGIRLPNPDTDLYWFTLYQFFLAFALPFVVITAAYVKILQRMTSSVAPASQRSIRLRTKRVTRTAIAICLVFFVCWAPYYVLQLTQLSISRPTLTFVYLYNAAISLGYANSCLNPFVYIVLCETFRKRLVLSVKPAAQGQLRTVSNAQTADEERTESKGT

human MCH-2R = human MCH-2R (Homo sapiens, UniProt Q969V1); experiment: Aequorin bioluminescence functional assay, MCH-2R agonist activity; conditions: for MCH-2R Agonist Activation %: 293-AEQ17 cells expressing human MCH-2R
human MCH-2R, sequence (Q969V1 whole entry): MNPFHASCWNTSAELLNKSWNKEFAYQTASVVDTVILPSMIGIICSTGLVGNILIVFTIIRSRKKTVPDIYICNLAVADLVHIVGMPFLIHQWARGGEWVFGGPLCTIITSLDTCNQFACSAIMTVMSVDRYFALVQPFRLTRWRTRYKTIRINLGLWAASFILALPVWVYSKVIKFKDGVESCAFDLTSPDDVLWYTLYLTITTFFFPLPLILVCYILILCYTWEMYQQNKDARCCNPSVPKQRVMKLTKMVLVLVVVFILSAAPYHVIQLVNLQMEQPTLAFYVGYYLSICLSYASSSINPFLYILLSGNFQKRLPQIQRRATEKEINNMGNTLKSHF

human MCH-1R = human MCH-1R (Homo sapiens, UniProt Q99705); experiment: MCH-1R binding assay, inhibition of [125I]-human MCH binding to membranes
human MCH-1R, sequence (Q99705 whole entry): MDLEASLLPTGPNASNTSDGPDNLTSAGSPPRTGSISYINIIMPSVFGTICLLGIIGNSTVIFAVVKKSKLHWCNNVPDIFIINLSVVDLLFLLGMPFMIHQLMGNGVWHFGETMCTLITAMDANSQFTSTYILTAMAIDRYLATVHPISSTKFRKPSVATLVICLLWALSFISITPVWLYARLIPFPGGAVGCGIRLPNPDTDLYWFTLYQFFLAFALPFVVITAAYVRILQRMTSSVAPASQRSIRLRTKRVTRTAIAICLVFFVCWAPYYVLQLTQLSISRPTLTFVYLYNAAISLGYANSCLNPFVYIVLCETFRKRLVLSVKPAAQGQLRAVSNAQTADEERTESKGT

Row | SMILES | EC50 (rat MCH-1R) | MCH-1R Agonist Activation % (rat MCH-1R) | EC50 (human MCH-2R) | MCH-2R Agonist Activation % (human MCH-2R) | IC50 (human MCH-1R) | MCH-1R Binding, % @ concentration (human MCH-1R; @ 10 (concentration unit not given), in the IC50 (nM) column)
1 | CSCC[C@@H]1NC(=O)[C@H](NC(=O)CCCCNC(=N)N)CSSC[C@@H](C(N)=O)NC(=O)CCCCNC(=O)CCCCNC(=O)[C@H](Cc2ccc(O)cc2)NC(=O)[C@H](C(C)C)NC(=O)[C@H](CCCNC(=N)N)NC(=O)CNC(=O)[C@H](CC(C)C)NC1=O [SEQ. ID. NO. 25] | > 10000 nM | 0.1% | > 10000 nM | 25% | 66 nM | 
2 | CSCC[C@@H]1NC(=O)[C@@H](NC(=O)[C@H](CCCNC(=N)N)NC(C)=O)CSSC[C@@H](C(N)=O)NC(=O)CCNC(=O)CCNC(=O)[C@H](Cc2ccc(O)cc2)NC(=O)[C@H](C(C)C)NC(=O)[C@H](CCCNC(=N)N)NC(=O)CCNC(=O)CCNC1=O [SEQ. ID. NO. 31] (Ac-RCM[βAla][βAla]RVY[βAla][βAla]C-NH2; disulfide 2-11) | > 10000 nM | 3% | > 10000 nM | 6% |  | 76% @ 10
3 | CSCC[C@@H]1NC(=O)[C@@H](NC(=O)[C@H](CCCNC(=N)N)NC(=O)[C@H](CC(C)C)NC(=O)[C@H](CCSC)NC(=O)[C@H](CC(=O)O)NC(=O)[C@H](Cc2ccccc2)NC(=O)[C@@H](N)CC(=O)O)CSSC[C@@H](C(=O)N[C@@H](Cc2c[nH]c3ccccc23)C(=O)N[C@@H](CCC(N)=O)C(=O)N[C@H](C(=O)O)C(C)C)NC(=O)[C@@H]2CCCN2C(=O)[C@H](CCCNC(=N)N)NC(=O)[C@H](Cc2ccc(O)cc2)NC(=O)[C@H](C(C)C)NC(=O)[C@H](CCCNC(=N)N)NC(=O)CNC(=O)[C@H](CC(C)C)NC1=O [hMCH, reference compound] | 30.9 nM | 100% |  | 100% |  | 
4 | CC(C)[C@@H]1NC(=O)[C@H](CCCNC(=N)N)NC(=O)CCCCNC(=O)CCCCNC(=O)CCCCNC(=O)[C@@H](NC(=O)CCCCNC(=N)N)CSSC[C@@H](C(N)=O)NC(=O)CCCCNC(=O)CCCCNC(=O)[C@H](Cc2ccc(O)cc2)NC1=O [SEQ. ID. NO. 36] | > 10000 nM | 0.1% | > 10000 nM | 24% | > 1000 nM | 
5 | CSCC[C@@H]1NC(=O)[C@@H](NC(=O)CCCCNC(=N)N)CSSC[C@@H](C(N)=O)NC(=O)CCCCNC(=O)CCCCNC(=O)[C@H](Cc2ccc(O)cc2)NC(=O)[C@H](C(C)C)NC(=O)[C@H](CCCNC(=N)N)NC(=O)CNC1=O [SEQ. ID. NO. 23] ({Pentanoyl(5-guanidino)}-CMGRVY[Ava][Ava]C-NH2; disulfide 1-9) | > 10000 nM | 0.1% | > 10000 nM | 26% | > 1000 nM | 
6 | CSCC[C@@H]1NC(=O)[C@@H](NC(=O)[C@@H](CCCNC(=N)N)NC(C)=O)CSSC[C@@H](C(N)=O)NC(=O)[C@@H]2CCCN2C(=O)[C@H](CCCNC(=N)N)NC(=O)[C@H](Cc2ccc(O)cc2)NC(=O)[C@H](C(C)C)NC(=O)[C@H](CCCNC(=N)N)NC(=O)CCCCNC(=O)CCCCNC1=O [SEQ. ID. NO. 4] (Ac-[dR]CM[Ava][Ava]RVYRPC-NH2; disulfide 2-11 (inferred); C-terminus assumed) | 1080 nM | 72% | > 10000 nM | 7% | 3.7 nM | 
7 | C[C@@H]1NC(=O)[C@@H](NC(=O)CCCCNC(=N)N)CSSC[C@@H](C(=O)O)NC(=O)CCCCNC(=O)CCCCNC(=O)[C@H](Cc2ccc(O)cc2)NC(=O)[C@H](C)NC(=O)[C@H](CCCNC(=N)N)NC(=O)CCCCNC(=O)CCCCNC1=O [SEQ. ID. NO. 34] ({Pentanoyl(5-guanidino)}-CA[Ava][Ava]RAY[Ava][Ava]C-OH; disulfide 1-10) | > 10000 nM | 0.1% | > 10000 nM | 28% | > 1000 nM | 
8 | CC(=O)N[C@@H](CCCNC(=N)N)C(=O)N[C@H]1CSSC[C@@H](C(N)=O)NC(=O)CCCCNC(=O)CCCCNC(=O)[C@H](Cc2ccc(O)cc2)NC(=O)[C@H](C(C)C)NC(=O)[C@H](CCCNC(=N)N)NC(=O)CNC(=O)[C@H](CC(C)C)NC(=O)[C@H](C)NC1=O [SEQ. ID. NO. 22] (Ac-RCALGRVY[Ava][Ava]C-NH2; disulfide 2-11; C-terminus assumed) | > 10000 nM | 0.1% | 1830 nM | 25% | > 1000 nM | 
9 | CSCC[C@@H]1NC(=O)[C@H](NC(=O)[C@H](CCCNC(=N)N)NC(C)=O)CSSC[C@@H](C(N)=O)NC(=O)CCCCNC(=O)CCCCNC(=O)[C@H](Cc2ccc(O)cc2)NC(=O)[C@H](C(C)C)NC(=O)[C@H](CCCNC(=N)N)NC(=O)CNC(=O)[C@H](CC(C)C)NC1=O [SEQ. ID. NO. 24] (Ac-R[dC]MLGRVY[Ava][Ava]C-NH2; disulfide 2-11; C-terminus assumed) | > 10000 nM | 3% | > 10000 nM | 17% | 350 nM | 
10 | CSCC[C@@H]1NC(=O)[C@@H](NC(=O)[C@H](CCCNC(=N)N)NC(C)=O)CSSC[C@@H](C(N)=O)NC(=O)CCCCNC(=O)CCCCNC(=O)[C@H](Cc2ccc(O)cc2)NC(=O)[C@H](C(C)C)NC(=O)[C@H](CCCNC(=N)N)NC(=O)CNC(=O)[C@H](CC(C)C)NC1=O [SEQ. ID. NO. 8] (Ac-RCMLGRVY[Ava][Ava]C-NH2; disulfide 2-11; C-terminus assumed) | 406 nM | 75% | > 10000 nM |  | 6.6 nM | 

Further lines, results first:

Row | EC50 (rat MCH-1R) | MCH-1R Agonist Activation % (rat MCH-1R) | EC50 (human MCH-2R) | MCH-2R Agonist Activation % (human MCH-2R) | IC50 (human MCH-1R) | MCH-1R Binding, % @ concentration (human MCH-1R; @ 10 (concentration unit not given), in the IC50 (nM) column) | SMILES
11 | 544 nM | 43% | > 10000 nM | 91% | 223 nM |  | CCCC[C@H]1NC(=O)[C@H](CC(C)C)NC(=O)[C@H](CCSC)NC(=O)[C@@H](NC(=O)[C@H](CCCNC(=N)N)NC(C)=O)CSSC[C@@H](C(N)=O)NC(=O)CCCCNC(=O)CCCCNC(=O)[C@H](Cc2ccc(O)cc2)NC(=O)[C@H](C(C)C)NC(=O)[C@H](CCCNC(=N)N)NC1=O [SEQ. ID. NO. 26] (Ac-RCML[dNle]RVY[Ava][Ava]C-NH2; disulfide 2-11; C-terminus assumed)
12 | 380 nM | 10% | > 10000 nM | 31% | 6.3 nM |  | CSCC[C@@H]1NC(=O)[C@@H](NC(=O)CCCCNC(=N)N)CSSC[C@@H](C(N)=O)NC(=O)[C@@H]2CCCN2C(=O)[C@H](CCCNC(=N)N)NC(=O)[C@H](Cc2ccc(O)cc2)NC(=O)[C@H](C(C)C)NC(=O)[C@H](CCCNC(=N)N)NC(=O)CCCCNC(=O)CCCCNC1=O [SEQ. ID. NO. 5] ({Pentanoyl(5-guanidino)}-CM[Ava][Ava]RVYRPC-NH2; disulfide 1-10 (inferred); C-terminus assumed)
13 | > 10000 nM | 0.1% | > 10000 nM | 25% | > 1000 nM |  | CSCC[C@@H]1NC(=O)[C@@H](NC(=O)CCCCNC(=N)N)CSSC[C@@H](C(N)=O)NC(=O)CNC(=O)[C@H](Cc2ccc(O)cc2)NC(=O)[C@H](C(C)C)NC(=O)[C@H](CCCNC(=N)N)NC(=O)CCCCNC(=O)CCCCNC1=O [SEQ. ID. NO. 6] ({Pentanoyl(5-guanidino)}-CM[Ava][Ava]RVYGC-NH2; disulfide 1-9)
14 | > 10000 nM | 0.1% | > 10000 nM | 25% | > 1000 nM |  | CCCC[C@@H]1NC(=O)[C@@H](NC(=O)CCCCNC(=N)N)CSSC[C@@H](C(=O)O)NC(=O)CCCCNC(=O)CCCCNC(=O)[C@H](Cc2ccc(O)cc2)NC(=O)[C@H](C)NC(=O)[C@H](CCCNC(=N)N)NC(=O)CCCCNC(=O)CCCCNC1=O [SEQ. ID. NO. 35] ({Pentanoyl(5-guanidino)}-C[Nle][Ava][Ava]RAY[Ava][Ava]C-OH; disulfide 1-10)
15 | 20 nM | 99% |  |  |  |  | CSCC[C@@H]1NC(=O)[C@@H](NC(=O)[C@H](CCCNC(=N)N)NC(C)=O)CSSC[C@@H](C(N)=O)NC(=O)[C@@H]2CCCN2C(=O)[C@H](CCCNC(=N)N)NC(=O)[C@H](Cc2ccc(O)cc2)NC(=O)[C@H](C(C)C)NC(=O)[C@H](CCCNC(=N)N)NC(=O)CNC(=O)[C@H](CC(C)C)NC1=O [SEQ. ID. NO. 2]
16 |  |  | > 10000 nM | 7% | 700 nM |  | CSCC[C@@H]1NC(=O)[C@@H](NC(=O)[C@H](CCCNC(=N)N)NC(C)=O)CSSC[C@@H](C(N)=O)NC(=O)CCCCNC(=O)CCCCNC(=O)[C@H](Cc2ccc(O)cc2)NC(=O)[C@H](C(C)C)NC(=O)[C@H](CCCNC(=N)N)NC(=O)[C@H]2CCCN2C(=O)[C@H](CC(C)C)NC1=O [SEQ. ID. NO. 28] (Ac-RCML[dP]RVY[Ava][Ava]C-NH2; disulfide 2-11 (inferred); C-terminus assumed)
17 | 1300 nM | 28% | > 10000 nM | 18% | 19.5 nM |  | CSCC[C@@H]1NC(=O)[C@@H](NC(=O)[C@@H](CCCNC(=N)N)NC(C)=O)CSSC[C@@H](C(N)=O)NC(=O)CCCCNC(=O)CCCCNC(=O)[C@H](Cc2ccc(O)cc2)NC(=O)[C@H](C(C)C)NC(=O)[C@H](CCCNC(=N)N)NC(=O)CNC(=O)[C@H](CC(C)C)NC1=O [SEQ. ID. NO. 10] (Ac-[dR]CMLGRVY[Ava][Ava]C-NH2; disulfide 2-11 (inferred); C-terminus assumed)
18 | > 10000 nM | 3% | > 10000 nM | 7% | 830 nM |  | CC[C@@H]1NC(=O)[C@@H](NC(=O)CCCCNC(=N)N)CSSC[C@@H](C(N)=O)NC(=O)CCCCNC(=O)CCCCNC(=O)[C@H](Cc2ccc(O)cc2)NC(=O)[C@H](C(C)C)NC(=O)[C@H](CCCNC(=N)N)NC(=O)CNC(=O)[C@H](CC(C)C)NC1=O [SEQ. ID. NO. 17] ({Pentanoyl(5-guanidino)}-C[Abu]LGRVY[Ava][Ava]C-NH2; disulfide 1-10; C-terminus assumed)
